For six molecules, EC50 results are on record in patent US9249180B2, “C-3 alkyl and alkenyl modified betulinic acid derivatives” (priority 2013, dated 2016).

The subject of this experiment is recombinant NL4-3 virus (Renilla luciferase in nef, Gag P373S; NLRluc) in MT-2 cells. In words: HIV Cell Culture Assay (luciferase reporter, antiviral activity). As to conditions: Renilla, NL43, MT-2 cells infected for 4-5 days with NLRluc recombinants, serial dilutions of the inhibitor. Type of experiment: cell-based. Here is the method:
HIV Cell Culture Assay—MT-2 cells and 293T cells were obtained from the NIH AIDS Research and Reference Reagent Program. MT-2 cells were propagated in RPMI 1640 media supplemented with 10% heat inactivated fetal bovine serum, […]. The 293T cells were propagated in DMEM media supplemented with 10% heat inactivated fetal bovine serum (FBS), 100 units/ml penicillin G and 100 μg/ml streptomycin. The proviral DNA clone of NL4-3 was obtained from the NIH AIDS Research and Reference Reagent Program. A recombinant NL4-3 virus, in which a section of the nef gene from NL4-3 was replaced with the Renilla luciferase gene, was used as a reference virus. In addition, residue Gag P373 was converted to P373S. Briefly, the recombinant virus was prepared by transfection of the altered proviral clone of NL4-3. Transfections were performed in 293T cells using LipofectAMINE PLUS from Invitrogen (Carlsbad, Calif.), according to manufacturer's instruction. The virus was titered in MT-2 cells using luciferase enzyme activity as a marker. Luciferase was quantitated using the Dual Luciferase kit from Promega (Madison, Wis.), with modifications to the manufacturer's protocol. The diluted Passive Lysis solution was pre-mixed with the re-suspended Luciferase Assay Reagent and the re-suspended Stop & Glo Substrate (2:1:1 ratio). Fifty (50) μL of the mixture was added to each aspirated well on assay plates and luciferase activity was measured immediately on a Wallac TriLux (Perkin-Elmer). Antiviral activities of inhibitors toward the recombinant virus were quantified by measuring luciferase activity in cells infected for 4-5 days with NLRluc recombinants in the presence serial dilutions of the inhibitor.
(In general: A reporter such as luciferase makes a cellular process visible.)
For orientation: EC50 means the midpoint of the concentration-response curve. For `C=C(C)[C@@H]1CC[C@]2(NCCN3CCC(S(C)(=O)=O)CC3)CC[C@]3(C)[C@H](CC[C@@H]4[C@@]5(C)CC=C(CCC(C)(C)CC(=O)O)C(C)(C)[C@@H]5CC[C@]43C)[C@@H]12` [Example 18, 3,3-dimethyl-5-((1R,3aS,5aR,5bR,7aR,11aS,11bR,13aR,13bR)-5a,5b,8,8,11a-pentamethyl-3a-((2-(4-(methylsulfonyl)piperidin-1-yl)ethyl)amino)-1-(prop-1-en-2-yl)-2,3,3a,4,5,5a,5b,6,7,7a,8,11,11a,11b,12,13,13a,13b-octadecahydro-1H-cyclopenta[a]chrysen-9-yl)pentanoic acid], the EC50 was 1.1 nM.
Next, `C=C(C)[C@@H]1CC[C@]2(NCCN3CCS(=O)(=O)CC3)CC[C@]3(C)[C@H](CC[C@@H]4[C@@]5(C)CC=C(CCC(C)(C)CC(=O)O)C(C)(C)[C@@H]5CC[C@]43C)[C@@H]12` [Example 6, 5-((1R,3aS,5aR,5bR,7aR,11aS,11bR,13aR,13bR)-3a-((2-(1,1-dioxidothiomorpholino)ethyl)amino)-5a,5b,8,8,11a-pentamethyl-1-(prop-1-en-2-yl)-2,3,3a,4,5,5a,5b,6,7,7a,8,11,11a,11b,12,13,13a,13b-octadecahydro-1H-cyclopenta[a]chrysen-9-yl)-3,3-dimethylpentanoic acid]: 1.38 nM.
Next, `C=C(C)[C@@H]1CC[C@]2(NCCN3CCS(=O)(=O)CC3)CC[C@]3(C)[C@H](CC[C@@H]4[C@@]5(C)CC=C(/C=C/c6ccc(C(=O)O)cc6)C(C)(C)[C@@H]5CC[C@]43C)[C@@H]12` [Example B1, 4-((E)-2-((1R,3aS,5aR,5bR,7aR,11aS,11bR,13aR,13bR)-3a-((2-(1,1-dioxidothiomorpholino)ethyl)amino)-5a,5b,8,8,11a-pentamethyl-1-(prop-1-en-2-yl)-2,3,3a,4,5,5a,5b,6,7,7a,8,11,11a,11b,12,13,13a,13b-octadecahydro-1H-cyclopenta[a]chrysen-9-yl)vinyl)benzoic acid]: 10 nM; `C=C(C)[C@@H]1CC[C@]2(NCCN3CCS(=O)(=O)CC3)CC[C@]3(C)[C@H](CC[C@@H]4[C@@]5(C)CC=C(CCC(C)(C)CC(=O)NC#N)C(C)(C)[C@@H]5CC[C@]43C)[C@@H]12` [Example 14, N-cyano-5-((1R,3aS,5aR,5bR,7aR,11aS,11bR,13aR,13bR)-3a-((2-(1,1-dioxidothiomorpholino)ethyl)amino)-5a,5b,8,8,11a-pentamethyl-1-(prop-1-en-2-yl)-2,3,3a,4,5,5a,5b,6,7,7a,8,11,11a,11b,12,13,13a,13b-octadecahydro-1H-cyclopenta[a]chrysen-9-yl)-3,3-dimethylpentanamide]: 4.7 nM.
Next, `C=C(C)[C@@H]1CC[C@]2(NCCN3CCS(=O)(=O)CC3)CC[C@]3(C)[C@H](CC[C@@H]4[C@@]5(C)CC=C(CCC(C)(C)CC(=O)NO)C(C)(C)[C@@H]5CC[C@]43C)[C@@H]12` [Example 12, 5-((1R,3aS,5aR,5bR,7aR,11aS,11bR,13aR,13bR)-3a-((2-(1,1-dioxidothiomorpholino)ethyl)amino)-5a,5b,8,8,11a-pentamethyl-1-(prop-1-en-2-yl)-2,3,3a,4,5,5a,5b,6,7,7a,8,11,11a,11b,12,13,13a,13b-octadecahydro-1H-cyclopenta[a]chrysen-9-yl)-N-hydroxy-3,3-dimethylpentanamide]: 2 nM; `C=C(C)[C@@H]1CC[C@]2(C(=O)O)CC[C@]3(C)[C@H](CC[C@@H]4[C@@]5(C)CC=C(CCC(=O)O)C(C)(C)[C@@H]5CC[C@]43C)[C@@H]12` [Example 19, (1R,3aS,5aR,5bR,7aR,11aS,13aR,13bR)-9-(2-carboxyethyl)-5a,5b,8,8,11a-pentamethyl-1-(prop-1-en-2-yl)-2,3,3a,4,5,5a,5b,6,7,7a,8,11,11a,11b,12,13,13a,13b-octadecahydro-1H-cyclopenta[a]chrysene-3a-carboxylic acid]: 470 nM.
